Measurements from patent US6362193B1, “Cycloalkenyl substituted compounds” (SmithKline Beecham Corporation, priority 1997, dated 2002).

Legend:
CSBP2 = target: T1, CSBP2 (Homo sapiens, UniProt Q16539); assay: CSBP Kinase Assay; format: biochemical; conditions: yeast-expressed purified CSBP2; 170 uM ATP (Km); T669 peptide substrate; 30° C. for 10 min
T1 construct: made in house; host or cells: yeast
Protocol: This assay measures the CSBP-catalyzed transfer of ^32P from [a-^32P]ATP to threonine residue in an epidermal growth factor receptor (EGFR)-derived peptide (T669) with the following sequence: […] (residues 661-681). (See Gallagher et al., “Regulation of Stress Induced Cytokine Production by Pyridinyl Imidazoles: Inhibition of CSPB Kinase”, BioOrganic & Medicinal Chemistry, to be published 1996).
Kinase reactions (total volume 30 ul) contain: 25 mM Hepes buffer, pH 7.5; 10 mM MgCl2; 170 uM ATP^(1); 10 uM Na ortho vanadate; 0.4 mM T669 peptide; and 20-80 ng of yeast-expressed purified CSBP2 (see Lee et al., Nature 300, n(72), 739-746 (December 1994)). Compounds (5 ul from [6×] stock^(2)) are pre-incubated with the enzyme and peptide for 20 min on ice prior to starting the reactions with 32P/MgATP. Reactions are incubated at 30° C. for 10 min and stopped by adding 10 ul of 0.3 M phosphoric acid. 32P-labeled peptide is separated on phosphocellulose (Wattman, p81) filters by spotting 30 ul reaction mixture. Filters are washed 3 times with 75 mM phosphoric acid followed by 2 washes with H2O, and counted for 32P.
(1) The Km of CSBP for ATP was determined to be 170 uM. Therefore, compounds screened at the Km value of ATP.
(2) Compounds are usually dissolved in DMSO and are diluted in 25 mM Hepes buffer to get final concentration of DMSO of 0.17%.

T1 sequence (Q16539 whole entry): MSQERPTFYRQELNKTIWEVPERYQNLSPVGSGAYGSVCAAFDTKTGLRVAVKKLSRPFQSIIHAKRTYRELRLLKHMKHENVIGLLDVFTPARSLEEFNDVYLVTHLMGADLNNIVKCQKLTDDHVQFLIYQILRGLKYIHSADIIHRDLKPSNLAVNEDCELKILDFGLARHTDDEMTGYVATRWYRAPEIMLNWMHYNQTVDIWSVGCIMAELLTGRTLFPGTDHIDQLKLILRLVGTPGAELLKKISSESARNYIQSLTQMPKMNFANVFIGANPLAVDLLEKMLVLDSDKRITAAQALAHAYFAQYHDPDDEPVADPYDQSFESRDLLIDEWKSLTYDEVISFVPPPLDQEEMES

- melting point: 134 to 135 °C
- IC50 (CSBP2): < 50 µM
SMILES: Nc1nccc(C2=C(c3ccc(F)cc3)CCC2)n1 [Example 1, 1-[4-(2-Aminopyrimidinyl)]-2-(4-fluorophenyl)cyclopenten-1-ene]
